Reference: patent EP0813412B1, “GEL FOR THE LOCAL HORMONOTHERAPY OF VAGINAL DRYNESS” (priority 1995, dated 1997)

What was measured:
[1] = assay type: in vivo, femme
Procedure: Une première solution consiste à réduire la teneur en principe actif, typiquement à des doses de 5 µg ou même 2,5 µg par application unitaire.

[2] = Clinical trial, repeated vaginal application for 13 days: clinical and biological tolerance; assay type: in vivo, femme; settings: 10 µg vaginal, repeated for 13 days
Text: Ces événements d'intensité mineure n'ont pas empêché la poursuite de l'étude. La tolérance biologique a été excellente. Aucune anomalie ayant une signification clinique n'a été rapportée.

[3] = tested on: récepteurs à haute affinité pour l'estradiol au niveau de l'épithélium vaginal; settings: estrogen receptors; cited from earlier work
[4] = 10 µg, free micronised form in gel, single dose

Compound | surface sous la courbe ([1]; 10 µg vaginal gel, steady state) | pic plasmatique d'estradiol ([1]; 10 µg vaginal gel, steady state compared with first application) | concentration plasmatique maximale du pic [1, 4] | time of the plasma peak (pic plasmatique) [1, 4] | tolérance biologique [2] | tolérance clinique ([2]; sixteen subjects, free micronised form in gel) | effets indésirables (céphalées, épisodes de vomissements et bouffées de chaleur) ([2]; sixteen subjects, minor intensity) | activity profile (agonist / antagonist) [3]
C[C@]12CC[C@@H]3c4ccc(O)cc4CC[C@H]3[C@@H]1CC[C@@H]2O [17β-estradiol] | comparable à celle obtenue après la première application | tend à être plus faible et retardé | du même ordre que le taux physiologique moyen observés la première semaine de la phase folliculaire chez la femme fertile | une heure environ | excellente | excellente pour treize sujets sur seize | Trois sujets ont signalé des effets indésirables | –
C[C@]12CC[C@@H]3c4ccc(O)cc4CC[C@H]3[C@@H]1C[C@@H](O)[C@@H]2O [estriol] | – | – | – | – | – | – | – | agoniste partiel, voire d'antagoniste
